What was measured:
[1] = test system: Plasmodium falciparum; assay: NOVARTIS: Inhibition of Plasmodium falciparum 3D7 (drug-susceptible) proliferation in erythrocyte-based infection assay; assay type: functional, organism-based; details: Plasmodium falciparum, 3D7
[2] = test system: Plasmodium falciparum; assay: NOVARTIS: Inhibition of Plasmodium falciparum W2 (drug-resistant) proliferation in erythrocyte-based infection assay; assay type: functional, organism-based; details: Plasmodium falciparum, W2; read-out: EC50
[3] = NOVARTIS: Cytotoxicity against human hepatocellular carcinoma cell line (Huh7); assay type: toxicity, cell-based, Huh-7; details: Huh7 cells (hepatocellular carcinoma cell line)

Structure (SMILES)	EC50 [1]	EC50 [2]	CC50 [3]
Cn1c(=O)c2c(nc(N3CCN(C(=O)Nc4ccc(F)cc4F)CC3)n2C)n(C)c1=O	> 1.25 µM	1.21 µM	> 10 µM
CCc1ccc2[nH]c(=O)c(CN(CCN(CC)CC)C(=S)NCCCN(C)C)cc2c1	2.27 µM	1.53 µM	38.2 µM
O=[N+]([O-])c1ccc2nc(Nc3ccccc3)c(Nc3ccccc3)nc2c1	0.941 µM	0.955 µM	21.7 µM
COC(=O)c1c(C)oc2ccc(N(C(=O)c3ccc(C)cc3)S(=O)(=O)c3ccccc3)cc12	> 1.68 µM	0.69 µM	> 10 µM
COc1ccccc1CNC(=O)C1c2ccccc2C(=O)N2CCc3ccccc3C12 (configuration not stated)	4.9 µM	2.25 µM	> 100 µM
Cc1cc(N2CCCCC2)nc(NCc2ccccc2)n1	5.76 µM	0.739 µM	38.4 µM
N=c1n(CCN2CCCC2)c2ccccc2n1CC(O)c1ccc(Cl)c(Cl)c1 (configuration not stated)	0.083 µM	0.257 µM	10.9 µM
O=[N+]([O-])c1ccc(N2CCN(c3nc(NCCc4c[nH]c5ccccc45)c4ccccc4n3)CC2)cc1	0.171 µM	1.99 µM	14.3 µM
O=C(CSc1nc2cc3c(cc2c(=O)n1Cc1ccco1)OCO3)Nc1cc(C(F)(F)F)ccc1Cl	0.247 µM	0.326 µM	> 100 µM
Oc1ncnc2c1C(c1ccccc1)c1c(O)ncnc1O2	> 0.882 µM	> 0.462 µM	> 8.83 µM
Cc1nc2c(C)c(-c3ccccc3)nn2c(O)c1C	1.02 µM	2.08 µM	> 100 µM
Cc1cc([N+](=O)[O-])ccc1-c1ccc(C(=O)Nc2ccc(-c3nc4ccccc4[nH]3)cc2)o1	2.79 µM	> 12.5 µM	> 100 µM
Cc1ccccc1N(CC(=O)NCC1CCCO1)C(=O)c1snc(C(N)=O)c1N (configuration not stated)	> 0.706 µM	> 1.25 µM	> 2.4 µM
Cc1cccc(OC(C)C(=O)N2CCc3ccccc32)c1 (configuration not stated)	3.48 µM	1.14 µM	> 100 µM
CCc1ccc(NC(=O)c2ccc(F)c(S(=O)(=O)NC3CCCC(C)C3C)c2)cc1 (configuration not stated)	1.35 µM	0.216 µM	66 µM
CC(=O)c1cccc(NC(=O)NC2CC3CCCC(C2)N3CCc2ccccc2)c1 (configuration not stated)	0.0173 µM	0.0126 µM	> 10 µM
Cc1cccc(NC(=O)C2C3C=CC4(O3)C2C(=O)N(CC2COc3ccccc3O2)C4C(=O)NC2CCCC(C)C2C)c1 (configuration not stated)	> 8.07 µM	1.86 µM	> 100 µM
Oc1ccc(Br)c(C(Nc2ccccn2)c2ccc3cccnc3c2O)c1 (configuration not stated)	0.555 µM	0.281 µM	15.7 µM
Oc1cccc(-c2nc(-c3ccccc3)c(-c3ccc4oc5ccc(-c6[nH]c(-c7cccc(O)c7)nc6-c6ccccc6)cc5c4c3)[nH]2)c1	2.35 µM	1.01 µM	20.4 µM
CCC(=O)Nc1ccc2nc(SCC(=O)Nc3ccc(C(C)=O)cc3)sc2c1	> 12.5 µM	1.11 µM	> 100 µM
OC(CCNC1CCCCC1)COc1cccc2ccccc12 (configuration not stated)	0.789 µM	0.366 µM	> 10 µM
COc1ccc2nc(C)cc(Nc3ccc(Cl)c(Cl)c3)c2c1	0.249 µM	0.426 µM	6.25 µM
c1ccc(/C2=N/c3ccccc3/N=C(/c3ccccc3)c3ccccc32)cc1	0.678 µM	0.77 µM	> 100 µM
Cc1cc(C)n(-c2cc(NN=Cc3cc(Br)ccc3O)nc(C)n2)n1	0.237 µM	0.153 µM	> 100 µM
CCCN(CC(=O)Nc1cc(C(C)(C)C)nn1-c1cccc(C)c1C)C(=O)C1CCCCC1	1.18 µM	> 1.39 µM	9.45 µM

Structure (SMILES)	EC50 [1]	EC50 [2]	CC50 [3]
COc1ccccc1N1CCN([C@@H]2CCN(Cc3cccnc3)C[C@@H]2CCC(=O)N2CCCC2)CC1	1.08 µM	0.81 µM	> 10 µM
NS(=O)(=O)c1ccc(CCNC(=O)C=Cc2ccc3c(c2)OCO3)cc1	> 7.76 µM	3.39 µM	> 100 µM
CCOC(=O)C1=C(C)NC2=C(C(=O)C(C(=O)OC)C(C)C2)C1c1cc(Br)c(OC)c(OCC)c1 (configuration not stated)	0.7 µM	0.0727 µM	> 100 µM
COc1ccc(C2=C(Nc3ccc(C)c(C)c3)c3ccccc3C2=O)cc1	0.297 µM	0.281 µM	> 100 µM
O=C(Cc1cccnc1)N1CCC(Oc2ccncc2)CC1	0.626 µM	0.141 µM	0.104 µM
S=C(NCc1ccco1)NC1CC2CCC(C1)N2Cc1ccccc1 (configuration not stated)	0.865 µM	2.24 µM	> 100 µM
CCOc1ccc2c(C)nc(NC(N)=NC(C)=O)nc2c1	3.02 µM	> 12.5 µM	> 100 µM
COc1ccccc1NC(=O)CCN1CCCC(C)C1 (configuration not stated)	> 1.65 µM	> 0.598 µM	> 10 µM
COc1cccc2c1C(=O)c1c(O)c3c(c(O)c1C2=O)CC(O)(C(=O)CO)CC3OC1CC(N)C(O)C(C)O1 (configuration not stated)	0.169 µM	0.18 µM	5.25 µM
Cn1nc(C(F)(F)F)c(-c2ccc(Br)cc2)c1NC(=O)Nc1ccc(F)cc1F	0.211 µM	0.206 µM	42.8 µM
O=C(NCCN(CCNc1ccnc2cc(Cl)ccc12)CCNc1ccnc2cc(Cl)ccc12)C1CCC1	0.207 µM	0.255 µM	> 10 µM
CCc1nc2nc(C)cc(Nc3ccc(F)c(Cl)c3)n2n1	0.543 µM	0.547 µM	> 100 µM
CC(C)CCN(CCC(C)C)CC(O)Cn1c2ccc(Br)cc2c2cc(Br)ccc21 (configuration not stated)	1.49 µM	0.309 µM	> 100 µM
O=S(=O)(Nc1cc(Sc2nc[nH]n2)c(O)c2ccccc12)c1ccc(F)cc1	1.6 µM	0.323 µM	20.5 µM
CCc1nc2ccc(NC(=O)c3ccncc3)cc2c(=O)n1Cc1cccc(OC)c1	1.57 µM	0.427 µM	> 0.57 µM
Cc1c(NC(=S)N2CCOCC2)c(=O)n(-c2ccccc2)n1C	> 0.919 µM	> 1.25 µM	> 10 µM
N#Cc1c(NC(=O)CCl)c(C(=O)c2ccccc2)n2c1CCC2	0.298 µM	> 12.5 µM	> 74.2 µM
c1cc2cc(CN3CCc4nc(N5CCCCC5)sc4C3)ccc2[nH]1	0.41 µM	0.326 µM	> 10 µM
O=C(/C=C/c1ccccc1)Nc1ccccc1C(=O)Nc1ccc(-c2nc3ccc(NC(=O)c4ccccc4NC(=O)/C=C/c4ccccc4)cc3[nH]2)cc1	0.347 µM	0.382 µM	> 13.3 µM
O=c1c2ccccc2[nH]c2ccc(I)cc12	0.393 µM	0.418 µM	> 100 µM
COc1ccc(C2CC(=O)C3=C(C2)NC(C)=C(C(=O)OC(C)C)C3c2cccc(Cl)c2)cc1OC (configuration not stated)	0.0713 µM	0.0318 µM	16.1 µM
COC1C(OC2OC(C)C(O)C(C)(O)C2OC)c2c(cc3c(c2O)C(=O)c2c(ccc4c2OC2OC4(C)C(OC4CC(C)([N+](=O)[O-])C(OC5OC(C)C(O)C(C)(O)C5OC)C(C)O4)C(N(C)C)C2O)C3=O)CC1(C)O (configuration not stated)	0.131 µM	0.0701 µM	> 10 µM
CCOC(=O)N1CCN(c2ccc(C(F)(F)F)cn2)CC1	> 12.5 µM	7.18 µM	> 100 µM
CCCc1c(C)nc2ccc(C)cc2c1O	3.22 µM	2.96 µM	> 100 µM
